# Measured values from US7098199B2 (Sterix Limited, priority 1991, dated 2006).
# Read-outs that look alike come from different tables or passages of the source.
# Assays:
# [1] = target: T1, Steroid sulphatase (Steryl Sulphatase EC3.1.6.2) (Homo sapiens, UniProt P08842); assay: Steroid sulphatase activity in intact MCF-7 cells; type: cell-based; conditions: for inhibition at 10 µM: MCF7; for Steroid Sulphatase Activity: mean ± 1 S.D.
# T1 construct: endogenous in cells; host or cells: MCF-7 human breast cancer cells
# T1 sequence (P08842 22-583): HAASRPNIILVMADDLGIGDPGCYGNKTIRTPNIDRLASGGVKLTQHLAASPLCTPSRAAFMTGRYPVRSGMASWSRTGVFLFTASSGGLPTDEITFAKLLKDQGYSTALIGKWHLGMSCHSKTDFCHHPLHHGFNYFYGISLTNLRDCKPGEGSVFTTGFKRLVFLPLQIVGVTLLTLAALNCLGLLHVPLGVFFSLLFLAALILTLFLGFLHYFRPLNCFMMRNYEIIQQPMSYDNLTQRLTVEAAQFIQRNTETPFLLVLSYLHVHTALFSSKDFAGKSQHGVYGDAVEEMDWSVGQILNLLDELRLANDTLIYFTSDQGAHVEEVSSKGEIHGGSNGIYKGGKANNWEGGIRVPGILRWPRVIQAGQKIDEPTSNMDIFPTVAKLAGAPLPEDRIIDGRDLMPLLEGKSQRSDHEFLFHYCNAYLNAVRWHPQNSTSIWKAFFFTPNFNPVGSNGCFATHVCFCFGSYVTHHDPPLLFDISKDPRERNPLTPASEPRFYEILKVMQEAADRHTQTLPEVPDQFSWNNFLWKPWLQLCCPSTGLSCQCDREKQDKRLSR
# Experimental: Steroid sulphatase is defined as: Steryl Sulphatase EC3.1.6.2.
# Steroid sulphatase activity was measured in vitro using intact MCF-7 human breast cancer cells. This hormone dependent cell line is widely used to study the control of human breast cancer cell growth. […] Cells were maintained in Minimal Essential Medium (MEM) (Flow Laboratories, Irvine, Scotland) containing 20 mM HEPES, 5% foetal bovine serum, 2 mM glutamine, nonessential amino acids and 0.075% sodium bicarbonate. Up to 30 replicate 25 cm^2 tissue culture flasks were seeded with approximately 1×10^5 cells/flask using the above medium. Cells were grown to 80% confluency and medium was changed every third day.
# Each batch of experiments included incubations of microsomes prepared from a sulphatase-positive human placenta (positive control) and flasks without cells (to assess apparent non-enzymatic hydrolysis of the substrate). The number of cell nuclei per flask was determined using a Coulter Counter after treating the cell monolayers with Zaponin. One flask in each batch was used to assess cell membrane status and viability using the Trypan Blue exclusion method (Phillips, H. J. (1973) In: Tissue culture and applications,[eds: Kruse, D. F. & Patterson, M. K.]; pp. 406–408; Academic Press, New York).
# Unpaired Student's t-test was used to test the statistical significance of results.
# An identical experimental protocol to that described in Example 4 was used to generate results for oestrone-3-N,N-diimethylsulphamate except that incubations contained oestrone-3-N,N-dimethylsulphaiate (5 concentrations: 0; 0.001 μM; 0.01 μM; 0.1 μM; 1 μM) in place of oestrone-3-sulphamate.
# Steroid sulphatase [2] = target: T2, Steroid sulphatase (Homo sapiens, UniProt P08842); assay: Steroid sulphatase activity in placental microsomes; conditions: 10 μM
# T2 sequence (P08842 22-583): T1 sequence (P08842 22-583)
# Steroid sulphatase [3] = target: T3, Steroid sulphatase (Rattus norvegicus, UniProt P15589); assay: % inhibition in vivo from a single dose (Example 9); parameters: from tissue; host or cells: tissue of treated animals; tissue not given; conditions: single dose of 10 mg/kg
# T3 sequence (P15589 20-577): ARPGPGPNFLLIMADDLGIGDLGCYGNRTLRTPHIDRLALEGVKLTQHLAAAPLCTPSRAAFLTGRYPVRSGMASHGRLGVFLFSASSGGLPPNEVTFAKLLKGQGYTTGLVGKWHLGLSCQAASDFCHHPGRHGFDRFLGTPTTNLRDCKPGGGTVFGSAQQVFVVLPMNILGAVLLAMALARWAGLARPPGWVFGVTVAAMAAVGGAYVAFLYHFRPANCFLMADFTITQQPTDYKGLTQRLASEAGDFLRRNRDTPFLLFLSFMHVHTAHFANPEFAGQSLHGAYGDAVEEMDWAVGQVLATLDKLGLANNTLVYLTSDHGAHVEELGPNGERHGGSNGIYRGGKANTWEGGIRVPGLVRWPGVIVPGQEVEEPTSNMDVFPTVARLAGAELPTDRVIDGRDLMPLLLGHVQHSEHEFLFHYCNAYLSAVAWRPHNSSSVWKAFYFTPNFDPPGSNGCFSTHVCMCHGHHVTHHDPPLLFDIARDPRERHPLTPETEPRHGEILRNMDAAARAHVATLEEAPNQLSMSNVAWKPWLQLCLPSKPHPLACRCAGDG
# oestrone sulphatase [4] = target: T4, oestrone sulphatase (Homo sapiens, UniProt P08842); assay: Oestrone sulphatase inhibition in placental microsomes by flavanoid sulphamates; type: biochemical
# T4 sequence (P08842 22-583): T1 sequence (P08842 22-583)
# oestrone sulphatase [5] = target: T4, oestrone sulphatase
# Steroid sulphatase [6] = target: T3, Steroid sulphatase; assay: Steroid sulphatase activity in liver microsome preparations from rats treated subcutaneously; type: in vivo; parameters: except that the tissue source was rat liver; from tissue; host or cells: liver of female Wistar rats; conditions: 10 mg/kg/day s.c. for 7 days, rat liver microsomes, mean ± 1 S.D., n = 3
# oestrone sulphatase [7] = target: T4, oestrone sulphatase; type: cell-based
# [8] = target: T1, Steroid sulphatase (Steryl Sulphatase EC3.1.6.2); assay: Steroid sulphatase activity in MCF-7 cells pre-incubated with inhibitor and washed; type: cell-based; conditions: pre-treatment 2 hours with 0.1 μM, cells washed 3 times
# [9] = concentration tested 1 mM (so in the source)
# [10] = concentration tested 10 mM (so in the source)
# [11] = concentration tested 25 mM (so in the source)
# [12] = concentration tested 50 mM (so in the source)
# [13] = concentration tested 100 mM (so in the source)
compound,measurement,setting,value
"NS(=O)(=O)Oc1ccccc1[N+](=O)[O-] [9c, 2-Nitrophenol-O-sulfamate]",inhibition at 10 µM,[1],99 ± 2%
same,% Inhibition in Placental Microsomes at 10 μM,Steroid sulphatase [2],40±2%
same,% Inhibition in vivo from a single dose of 10 mg/kg,Steroid sulphatase [3],22±3%
flavone-7-sulphamate,% INHIBITION Sulphatase,oestrone sulphatase [4]; 50 μM,56.3%
same,% INHIBITION Sulphatase,oestrone sulphatase [4]; 100 μM,75.3%
CCCCCCCOc1ccc(OS(N)(=O)=O)cc1 [9a],inhibition at 10 µM,[1],99 ± 2%
same,melting point,,> 42 °C (dec.)
same,% Inhibition in Placental Microsomes at 10 μM,Steroid sulphatase [2],40±2%
same,% Inhibition in vivo from a single dose of 10 mg/kg,Steroid sulphatase [3],22±3%
"COc1cc(CNC(=O)CCCC/C=C/C(C)C)ccc1OS(N)(=O)=O [9b, (E) Methyl-γ-methyl-6-nonenamide-N-(3-methboxyphenyl4-O-sulphanate)]",inhibition at 10 µM,[1],99 ± 2%
same,% Inhibition in Placental Microsomes at 10 μM,Steroid sulphatase [2],40±2%
same,% Inhibition in vivo from a single dose of 10 mg/kg,Steroid sulphatase [3],22±3%
COc1ccc(-c2coc3cc(OS(N)(=O)=O)cc(O)c3c2=O)cc1 [5-Hydroxy-4′-methoxyisoflavone 7-O-sulphamate],% INHIBITION Sulphatase,oestrone sulphatase [4]; 1 μM,1%
same,% INHIBITION Sulphatase,oestrone sulphatase [4]; 10 μM,50.6%
CCCc1c(OS(N)(=O)=O)ccc2c1CC[C@@H]1[C@@H]2CC[C@]2(C)C(=O)CC[C@@H]12 [4-n-propyl EMATE],% Inhibition (Mean) Placental Microsomes,oestrone sulphatase [5]; [9],13.7%
same,% Inhibition (Mean) Placental Microsomes,oestrone sulphatase [5]; [10],10.2%
same,% Inhibition (Mean) Placental Microsomes,oestrone sulphatase [5]; [11],15.7%
same,% Inhibition (Mean) Placental Microsomes,oestrone sulphatase [5]; [12],16.3%
same,% Inhibition (Mean) Placental Microsomes,oestrone sulphatase [5]; [13],23.7%
"C[C@]12CC[C@@H]3c4ccc(OS(=O)(=O)O)cc4CC[C@H]3[C@@H]1CCC2=O [E1-S, Oestrone-3-sulphate, reference compound]",Steroid Sulphatase Activity,Steroid sulphatase [6]; assay substrate DHA-S,1.71 ± 0.1 nmol/30 min/200 mg protein
same,Steroid Sulphatase Activity,Steroid sulphatase [6]; assay substrate E1-S,20.6 ± 0.4 nmol/30 min/200 mg protein
"NS(=O)(=O)Oc1ccc(-c2coc3cc(OS(N)(=O)=O)cc(O)c3c2=O)cc1 [Isoflavone 5-hydroxy-4′,7-bissulphamate, 5-Hydroxy Isoflavone4′-O,O-Disulphamate]",% Inhibition MCF-7 Cells,oestrone sulphatase [7]; 0.1 μM,28%
5-hydroxy-flavone-7-sulphamate [5-hydroxy flavone-7-sulphamate],% INHIBITION Sulphatase,oestrone sulphatase [4]; 1 μM,8%
same,% INHIBITION Sulphatase,oestrone sulphatase [4]; 10 μM,21%
"NS(=O)(=O)Oc1ccc(C2CC(=O)c3c(O)cc(O)cc3O2)cc1 (centres unmarked) [5,7-dihydroxy flavanone 4′-sulphamate, 5.7-Dihydroxyflavanone 4′-O-sulphamate]",% INHIBITION Sulphatase,oestrone sulphatase [4]; 0.1 μM,30.4%
same,% INHIBITION Sulphatase,oestrone sulphatase [4]; 1 μM,79.1%
same,% INHIBITION Sulphatase,oestrone sulphatase [4]; 10 μM,98.1%
same,% INHIBITION Sulphatase,"oestrone sulphatase [4]; 10 μM, listed as 5,7-dihydroxy flavanone-4′-sulphamate",98%
COc1cc2c(cc1OS(N)(=O)=O)CC[C@@H]1[C@@H]2CC[C@]2(C)C(=O)CC[C@@H]12 [2-methoxy EMATE],% Inhibition (Mean) Placental Microsomes,oestrone sulphatase [5]; [10],99.0%
same,% Inhibition (Mean) Placental Microsomes,oestrone sulphatase [5]; [12],99.7%
same,% Inhibition (Mean) Placental Microsomes,oestrone sulphatase [5]; [13],99.7%
CCCc1cc2c(cc1OS(N)(=O)=O)CC[C@@H]1[C@@H]2CC[C@]2(C)C(=O)CC[C@@H]12 [2-n-propyl EMATE],% Inhibition (Mean) Placental Microsomes,oestrone sulphatase [5]; [9],21.9%
same,% Inhibition (Mean) Placental Microsomes,oestrone sulphatase [5]; [10],43.2%
same,% Inhibition (Mean) Placental Microsomes,oestrone sulphatase [5]; [11],47.5%
same,% Inhibition (Mean) Placental Microsomes,oestrone sulphatase [5]; [12],61.1%
same,% Inhibition (Mean) Placental Microsomes,oestrone sulphatase [5]; [13],69.2%
flavone-6-sulphamate,% INHIBITION Sulphatase,oestrone sulphatase [4]; 1 μM,26.8%
same,% INHIBITION Sulphatase,oestrone sulphatase [4]; 10 μM,89.5%
C=CCc1c(OS(N)(=O)=O)ccc2c1CC[C@@H]1[C@@H]2CC[C@]2(C)C(=O)CC[C@@H]12 [4-allyl EMATE],% Inhibition (Mean) Placental Microsomes,oestrone sulphatase [5]; [9],29.1%
same,% Inhibition (Mean) Placental Microsomes,oestrone sulphatase [5]; [10],54.2%
same,% Inhibition (Mean) Placental Microsomes,oestrone sulphatase [5]; [11],59.0%
same,% Inhibition (Mean) Placental Microsomes,oestrone sulphatase [5]; [12],65.1%
same,% Inhibition (Mean) Placental Microsomes,oestrone sulphatase [5]; [13],71.9%
"NS(=O)(=O)Oc1ccc(-c2coc3cc(O)cc(O)c3c2=O)cc1 [Isoflavone 5.7-dihydroxy-4′-sulphamate, 5,7-Dihydroxy Isoflavone-4′-O-Sulphamate]",% Inhibition MCF-7 Cells,oestrone sulphatase [7]; 0.1 μM,23%
same,% Inhibition MCF-7 Cells,oestrone sulphatase [7]; 1.0 μM,83%
same,% Inhibition MCF-7 Cells,oestrone sulphatase [7]; 10.0 μM,99%
C[C@]12CC[C@@H]3c4cc([N+](=O)[O-])c(OS(N)(=O)=O)cc4CC[C@H]3[C@@H]1CCC2=O [2-nitro EMATE],% Inhibition (Mean) Placental Microsomes,oestrone sulphatase [5]; concentration tested 0.05 mM (so in the source),44.5%
same,% Inhibition (Mean) Placental Microsomes,oestrone sulphatase [5]; concentration tested 0.5 mM (so in the source),93.9%
same,% Inhibition (Mean) Placental Microsomes,oestrone sulphatase [5]; concentration tested 5 mM (so in the source),99.0%
same,% Inhibition (Mean) Placental Microsomes,oestrone sulphatase [5]; [12],99.4%
"CN(C)S(=O)(=O)Oc1ccc2c(c1)CC[C@@H]1[C@@H]2CC[C@]2(C)C(=O)CC[C@@H]12 [Oestrone-3-N,N-dimethylsulphamate, oestrone-3-N.N-dimethylsulphamate]",% reduction over control (% inhibition),[1]; inhibitor 0.001 μM,17.3%
same,Steroid Sulphatase Activity,[1]; inhibitor 0.001 μM,68.33 ± 3.2 fmol/20 hr/10^6 cells
same,% reduction over control (% inhibition),[1]; inhibitor 0.01 μM,44.3%
same,Steroid Sulphatase Activity,"[1]; inhibitor 0.01 μM, n = 3",46.0 ± 4.9 fmol/20 hr/10^6 cells
same,% reduction over control (% inhibition),[1]; inhibitor 0.1 μM,78.9%
same,Steroid Sulphatase Activity,"[1]; inhibitor 0.1 μM, n = 3",17.43 ± 4.3 fmol/20 hr/10^6 cells
same,% reduction over control (% inhibition),[1]; inhibitor 1 μM,85.6%
same,Steroid Sulphatase Activity,"[1]; inhibitor 1 μM, n = 3",11.89 ± 3.7 fmol/20 hr/10^6 cells
same,% reduction over control (% inhibition),[8],18.8%
same,Steroid Sulphatase Activity,"[8]; mean ± 1 S.D., n = 3",53.1 ± 3.4 fmol/20 hr/10^6 cells
C=CCc1cc2c(cc1OS(N)(=O)=O)CC[C@@H]1[C@@H]2CC[C@]2(C)C(=O)CC[C@@H]12 [2-allyl EMATE],% Inhibition (Mean) Placental Microsomes,oestrone sulphatase [5]; [9],45.6%
same,% Inhibition (Mean) Placental Microsomes,oestrone sulphatase [5]; [10],65.4%
same,% Inhibition (Mean) Placental Microsomes,oestrone sulphatase [5]; [11],75.3%
same,% Inhibition (Mean) Placental Microsomes,oestrone sulphatase [5]; [12],86.6%
same,% Inhibition (Mean) Placental Microsomes,oestrone sulphatase [5]; [13],89.6%
